Test results as given in US20240294543A1, “CYCLOHEPTA-THIENO-DIAZEPINE DERIVATIVES AS GABA A GAMMA1 PAM” (Hoffmann-La Roche Inc., priority 2021, published 2024).

How the values were obtained:
[1] = molecular target: human GABAA α5β2γ1 receptor (Homo sapiens (Human), UniProt P31644+Q8N1C3); experiment: Radioligand binding assay, competition for [3H]RO7239181, γ1-containing GABAA subtypes
Method: The affinity of compounds at GABAA γ1 subunit-containing receptors was measured by competition for [^3H]RO7239181 (67.3 Ci/mmol; Roche) binding to membranes from HEK293F cells (ThermoFisher R79007) expressing human (transiently transfected) receptors of composition α5β2γ1, α2β2γ1, α1β2γ1. For better protein expression of the α2 subunit-containing receptors, the 28 amino acid long signal peptide (Met1 to Ala28) of the human GABAA α2 subunit was substituted by the 31 amino acid long signal peptide (Met1 to Ser31) of human GABAA α5 subunit.
Harvested pellets from HEK293F cells expressing the different GABAA receptor subtypes were resuspended in Mannitol Buffer pH 7.2-7.4 (Mannitol 0.29 M, Triethylamine 10 mM, Acetic acid 10 mM, EDTA 1 mM plus protease inhibitors (20 tablets Complete, Roche Diagnostics Cat. No. 05 056 489 001 per liter)), washed two times and then resuspended at 1:10 to 1:15 dilution in the same buffer. Cell disruption was performed by stirring the suspension in a Parr vessel #4637 at 435 psi for 15 minutes, and then the suspensions were centrifuged at 1000×g for 15 minutes at 4° C. (Beckman Avanti J-HC; rotor JS-4.2). The supernatant (S1) was transferred in a 21 Schott flask and the pellet (P1) was resuspended with Mannitol Buffer up to 175 ml. The resuspended pellet was transferred into a 250 ml Corning centrifugal beaker and centrifuged at 1500×g for 10 minutes at 4° C. (Beckman Avanti J-HC; rotor JS-4.2). The supernatant (S1) was then transferred in the 21 Schott flask and the pellet was discarded. The supernatants (S1) were centrifuged in 500 ml Beckman polypropylene centrifugal beaker at 15'000×g for 30 minutes at 4° C. (Beckman Avanti J-20 XP; rotor JLA-10.500). The pellet (P2) was resuspended with Mannitol Buffer 1:1 and frozen at −80° C. The supernatant (S2) was centrifuged in 100 ml Beckman polypropylene centrifugal tubes at 48000×g for 50 minutes at 4° C. (Beckman Avanti J-20 XP; rotor JA-18). The supernatant (S3) was discarded and the pellet (P3) was resuspended with 1:1 Mannitol Buffer. The P2 and P3 protein concentration was determined with the BIORAD Standard assay method with bovine serum albumin as standard and measured on the NANO-Drop 1000. The membrane suspension was aliquots (500 μl per tube) and stored at −80° C. until required.
Membrane homogenates were resuspended and polytronised (Polytron PT1200E Kinematica AG) in Potassium Phosphate 10 mM, KCl 100 mM binding buffer at pH 7.4 to a final assay concentration determined with a previous experiment.
Radioligand binding assays were carried out in a volume of 200 μL (96-well plates) which contained 100 μL of cell membranes, [^3H]RO7239181 at a concentration of 1.5 nM (α5β2γ1) or 20-30 nM (α1β2γ1, α2β2γ1) and the test compound in the range of [0.3-10000]×10^−9 M. Nonspecific binding was defined by 10×10^−6 (α5β2γ1) and 30×10^−6 M RO7239181 and typically represented less than 5% (α5β2γ1) and less than 20% (α1β2γ1, α2β2γ1) of the total binding. Assays were incubated to equilibrium for 1 hour at 4° C. and then, membranes were filtered onto unifilter (96-well white microplate with bonded GF/C filters preincubated 20-50 minutes in 0.3% Polyethylenimine) with a Filtermate 196 harvester (Packard BioScience) and washed 4 times with cold Potassium Phosphate 10 mM pH 7.4, KCl 100 mM binding buffer. After anhydrousing, filter-retained radioactivity was detected by liquid scintillation counting. Ki values were calculated using Excel-Fit (Microsoft) and are the means of two determinations.

h-GABA-A α2β2γ1 = h-GABA-A α2β2γ1 (Homo sapiens (Human), UniProt P47869+Q8N1C3); experiment: Two-electrode voltage clamp electrophysiology in Xenopus oocytes expressing GABAA receptors; assay type: cell-based; conditions: for Efficacy (GABA) %: % modulation of GABA EC20 = 100*(Fold increase−1), compound at about 30-fold its Ki α2β2γ1; for Fold increase h-GABA-A α2β2γ1 oocyte @ 30-fold Ki: Xenopus oocytes, GABA EC20, compound at about 30-fold its Ki α2β2γ1
Method: Xenopus Oocytes Preparation Xenopus laevis oocytes at maturation stages V-VI were used for the expression of cloned mRNA encoding GABAA receptor subunits. Oocytes ready for RNA micro-injection were bought from Ecocyte, Castrop-Rauxel, Germany and stored in modified Barth's medium (composition in mM: NaCl 88, KCl 1, NaHCO3 2.4, HEPES 10, MgSO4 0.82, CaNO3 0.33, CaCl2 0.33, pH=7.5) at 20° C. until the experiment.
Oocytes were plated in 96-well plates for microinjection using the Roboinject automated instrument (MultiChannelSystems, Reutlingen, Germany). Approximately 50 nL of an aqueous solution containing the RNA transcripts for the subunits of the desired GABAA receptor subtype was injected into each oocyte. […] Oocytes were kept in modified Barth's medium (composition in mM: NaCl 88, KCl 1, NaHCO3 […], HEPES 10, MgSO4 0.82, CaNO3 0.33, CaCl2 0.33, pH=7.5) at 20° C. until the experiment.
Electrophysiological experiments were performed using the Roboocyte instrument (MultiChannelSystems, Reutlingen, Germany) on days 3 to 5 after the micro-injection of mRNA. During the experiment the oocytes were constantly superfused by a solution containing (in mM) NaCl 90, KCl 1, HEPES 5, MgCl2 1, CaCl2 1 (pH 7.4). Oocytes were impaled by two glass microelectrodes (resistance: 0.5-0.8 MQ) which were filled with a solution containing KCl 1M+K-acetate 1.5 M and voltage-clamped to −80 mV. The recordings were performed at room temperature using the Roboocyte two-electrode voltage clamp system (Multichannelsystem). After an initial equilibration period of 1.5 min GABA was added for 1.5 min at a concentration evoking approximately 20% of a maximal current response (EC20). After another rest interval of 2.5 min GABA was again added evoking a response of similar amplitude and shape. […] Current traces were recorded at a digitization rate of 10 Hz during and shortly before and after the GABA application.
Each compound and concentration was tested on at least 3 oocytes. Different oocytes were used for different compound concentrations.
For the analysis, the digitized current traces of the first and second GABA response were superimposed and, if necessary, rescaled to equal maximal amplitudes. The ratio between the two responses during the time interval of test compound application was calculated point by point. The extremum of the resulting “ratio trace” was taken as the efficacy (“Fold increase”) of the compound expressed as “% modulation of GABA EC20” (100*(Fold increase−1)).

Row | SMILES | Ki [1] [nM] | Efficacy (GABA) % (h-GABA-A α2β2γ1) [%] | Fold increase h-GABA-A α2β2γ1 oocyte @ 30-fold Ki (h-GABA-A α2β2γ1)
1 | Cc1nnc2n1-c1sc3c(c1C(c1c(F)cccc1F)=N[C@H]2C)CCCCC3O (mixture of isomers) [Example 9, (7S,16RS)-9-(2,6-difluorophenyl)-3,7-dimethyl-18-thia-2,4,5,8-tetrazatetracyclo[8.8.0.02,6.011,17]octadeca-1(10),3,5,8,11(17)-pentaen-16-ol] | 2.79 | 96 | 1.96
2 | Cc1nnc2n1-c1sc3c(c1C(c1c(F)cccc1F)=N[C@H]2C)CCCC(O)C3 (mixture of isomers) [Example 13, (7S,15RS)-9-(2,6-difluorophenyl)-3,7-dimethyl-18-thia-2,4,5,8-tetrazatetracyclo[8.8.0.02,6.011,17]octadeca-1(10),3,5,8,11(17)-pentaen-15-ol] | 5.67 | 80 | 1.80
3 | Cc1nnc2n1-c1sc3c(c1C(c1c(F)cccc1F)=N[C@H]2C)CCCC[C@H]3F (single isomer, unassigned) [Example 11] | 2.7 | 88 | 1.88
4 | Cc1nnc2n1-c1sc3c(c1C(c1c(F)cccc1F)=N[C@H]2C)CCCC[C@@H]3F (single isomer, unassigned) [Example 12] | 2.65 | 185 | 2.85
5 | Cc1nnc2n1-c1sc3c(c1C(c1c(F)cccc1F)=N[C@H]2C)CC[C@H](F)CC3 (single isomer, unassigned) [Example 14] | 4.87 | 181 | 2.81
6 | Cc1nnc2n1-c1sc3c(c1C(c1c(F)cccc1F)=N[C@H]2C)CC[C@@H](F)CC3 (single isomer, unassigned) [Example 15] | 8 | 144 | 2.44
7 | Cc1nnc2n1-c1sc3c(c1C(c1c(F)cccc1F)=N[C@H]2C)CCC[C@H](F)C3 (single isomer, unassigned) [Example 17] | 1.77 | 135 | 2.35
8 | Cc1nnc2n1-c1sc3c(c1C(c1c(F)cccc1F)=N[C@H]2C)CCC(F)C(F)C3 (single isomer, unassigned) [Example 34] | 20.9 | 134 | 2.34
9 | Cc1nnc2n1-c1sc3c(c1C(c1c(F)cccc1F)=NC2)CCCCC3 [Example 1, 9-(2,6-difluorophenyl)-3-methyl-18-thia-2,4,5,8-tetrazatetracyclo[8.8.0.02,6.011,17]octadeca-1(10),3,5,8,11(17)-pentaene] | 1.4 | 64 | 1.64
10 | Cc1nnc2n1-c1sc3c(c1C(c1c(F)cccc1F)=N[C@H]2C)CCCCC3 [Example 2, (7S)-9-(2,6-difluorophenyl)-3,7-dimethyl-18-thia-2,4,5,8-tetrazatetracyclo[8.8.0.02,6.011,17]octadeca-1(10),3,5,8,11(17)-pentaene] | 1.7 | 66 | 1.66
11 | C[C@@H]1N=C(c2c(F)cccc2F)c2c(sc3c2CCCCC3)-n2c(C3CC3)nnc21 [Example 3, (7S)-3-cyclopropyl-9-(2,6-difluorophenyl)-7-methyl-18-thia-2,4,5,8-tetrazatetracyclo[8.8.0.02,6.011,17]octadeca-1(10),3,5,8,11(17)-pentaene] | 3.69 | 91 | 1.91
12 | C[C@@H]1N=C(c2c(F)cccc2F)c2c(sc3c2CCCCC3)-n2c(-c3cccnn3)nnc21 [Example 4, (7S)-9-(2,6-difluorophenyl)-7-methyl-3-pyridazin-3-yl-18-thia-2,4,5,8-tetrazatetracyclo[8.8.0.02,6.011,17]octadeca-1(10),3,5,8,11(17)-pentaene] | 8.65 | 119 | 2.19
13 | C[C@@H]1N=C(c2c(F)cccc2F)c2c(sc3c2CCCCC3)-n2ccc(=O)nc21 [Example 7, (8S)-10-(2,6-difluorophenyl)-8-methyl-19-thia-2,6,9-triazatetracyclo[9.8.0.02,7.012,18]nonadeca-1(11),3,6,9,12(18)-pentaen-5-one] | 2.24 | 169 | 2.69
14 | Cc1nnc2n1-c1sc3c(c1C(c1c(F)cccc1F)=N[C@H]2C)CCCC(F)(F)C3 [Example 8, (7S)-9-(2,6-difluorophenyl)-15,15-difluoro-3,7-dimethyl-18-thia-2,4,5,8-tetrazatetracyclo[8.8.0.02,6.011,17]octadeca-1(10),3,5,8,11(17)-pentaene] | 12.8 | 203 | 3.03
15 | Cc1nnc2n1-c1sc3c(c1C(c1c(F)cccc1F)=NC2)CCCCO3 [Example 18, 9-(2,6-difluorophenyl)-3-methyl-16-oxa-18-thia-2,4,5,8-tetrazatetracyclo[8.8.0.02,6.011,17]octadeca-1(10),3,5,8,11(17)-pentaene] | 1.84 | 113 | 2.13
16 | Cc1nnc2n1-c1sc3c(c1C(c1c(F)cccc1F)=N[C@H]2C)CCCCO3 [Example 19, (7S)-9-(2,6-difluorophenyl)-3,7-dimethyl-16-oxa-18-thia-2,4,5,8-tetrazatetracyclo[8.8.0.02,6.011,17]octadeca-1(10),3,5,8,11(17)-pentaene] | 1.86 | 122 | 2.22
